What was measured:
[1] = oral intake; avoids digestion and absorption in the small intestine; cited from earlier work
IL-6 = IL-6 release (ELISA) in reconstructed 3D human intestinal epithelium stressed with LPS+TNF-alpha; details: for effect on release of IL-6 (in words): LPS+TNF-alpha stressed tissue, vs positive control, t-test; for IL-6 Anti-inflammatory activity: compared with CTR+ (LPS+TNF-alpha), * = p<0.05 vs positive control; for IL-6 Anti-inflammatory activity / IL-6 % var. vs CTR −: reference dose; for IL-6 % var. vs CTR −: variation vs untreated tissues (CTR−), LPS+TNF-alpha stressed
Protocol: (§1) Assays of pro-inflammatory cytokines TNF-alpha and IL-6 were evaluated. The biological model used in the assay is a model of human intestinal epithelium reconstructed in vitro in 3D, consisting of intestinal epithelial and endothelial cells and fibroblasts of human origin. The highly differentiated tissue model is produced at the air-liquid interface in easily manageable culture tissue inserts using a serum-free medium. […] The cells used to produce the tissue model were screened for potential biological contaminants, using specific tests and analyses to guarantee the functionality and quality of the tissues.
(§2) The intestinal epithelium tissues reconstructed in vitro were exposed for 24 hours to the stressor lipopolysaccharide of bacterial origin (LPS) in combination with cytokine TNF-alpha, and simultaneously treated for a further 24 hours with each experimental condition examined. After the 48-hour experimental session, the culture media were harvested to assay pro-inflammatory cytokines TNF-alpha and IL-6.
(§3) Each ingredient and the mixture selected for the treatments were diluted in H2O, taking account of the average intestinal volume of 80 ml. In particular, the following reference doses were used: • calcium butyrate 500 mg; • gluconic acid 29.87 mg; • gluconic acid+calcium butyrate=29.87 mg+500 mg.
(§4) 50 μl of each sample was tested in the tissue model, simulating the following experimental conditions: • reference dose; The experimental protocol involved: • untreated tissues (CTR−); • tissues exposed to pro-inflammatory agents LPS+TNF-alpha (CTR+); • tissues exposed to pro-inflammatory agents LPS+TNF-alpha and treated with butyrate (calcium butyrate); • tissues exposed to pro-inflammatory agents LPS+TNF-alpha and treated with gluconic acid; • tissues exposed to pro-inflammatory agents LPS+TNF-alpha and treated with gluconic acid+butyrate (calcium butyrate) mixture; • Each test was conducted in duplicate. To monitor the ability of the tested ingredients to inhibit the inflammatory response in vitro in a system wherein an inflammatory condition has been induced, the production of pro-inflammatory cytokine TNF-alpha and interleukin 6 (IL-6) was evaluated. At the end of the treatments the culture media were harvested for the TNF-alpha and IL-6 assay using an ELISA kit. The data obtained were subjected to statistical analysis and compared using the t-test. The variations compared with the positive control are deemed significant for p<0.05 and indicated by “*”.
(§5) The results are expressed as mean values ±standard deviation (expressed in pg/ml), as % variation compared with CTR− and as anti-inflammatory activity compared with CTR+.

TNF-alpha = TNF-alpha release (ELISA) in reconstructed 3D human intestinal epithelium stressed with LPS+TNF-alpha; details: for effect on release of TNF-alpha (in words): LPS+TNF-alpha stressed tissue, vs positive control, t-test; for TNF-alpha Anti-inflammatory activity: compared with CTR+ (LPS+TNF-alpha), * = p<0.05 vs positive control; for TNF-alpha Anti-inflammatory activity / TNF-alpha % var. vs CTR −: reference dose; for TNF-alpha % var. vs CTR −: variation vs untreated tissues (CTR−), LPS+TNF-alpha stressed
Protocol: as §1, §2, §3, §4, §5

O=C(O)[C@H](O)[C@@H](O)[C@H](O)[C@H](O)CO [Gluconic acid, gluconic acid]
gluconic acid introduced with the diet or diet supplements that reaches the large intestine [1]: over 70% | effect on release of IL-6 (in words) (IL-6): significantly reduce release of the pro-inflammatory cytokine | IL-6 Anti-inflammatory activity (IL-6): 24.3%* | IL-6 % var. vs CTR − (IL-6): 60.5% | effect on release of TNF-alpha (in words) (TNF-alpha): significantly reduce the release of the pro-inflammatory cytokine | TNF-alpha Anti-inflammatory activity (TNF-alpha): 30.3%* | TNF-alpha % var. vs CTR − (TNF-alpha): 37.6%

CCCC(=O)O [Butyrate, calcium butyrate]
effect on release of IL-6 (in words) (IL-6): significantly reduce release of the pro-inflammatory cytokine | IL-6 Anti-inflammatory activity (IL-6): 23.8%* | IL-6 % var. vs CTR − (IL-6): 61.5% | effect on release of TNF-alpha (in words) (TNF-alpha): significantly reduce the release of the pro-inflammatory cytokine | TNF-alpha Anti-inflammatory activity (TNF-alpha): 28.8%* | TNF-alpha % var. vs CTR − (TNF-alpha): 40.5%

— US20250170080A1, “COMPOSITIONS COMPRISING BUTYRIC ACID AND GLUCONIC ACID FOR THE TREATMENT OF DISORDERS AND SYNDROMES ASSOCIATED WITH INTESTINAL BARRIER DYSFUNCTIONS AND DYSBIOSIS” (DIFASS INTERNATIONAL S.P.A., priority 2022, published 2025)
